From article PMC7464785 (Pharmaceutics, 2020)
Like-named read-outs stand apart in the source and are kept apart here.

Experiments:
[1] = Pharmacokinetics after 1-min intravenous infusion to control, G-ARF and C-ARF rats; type: in vivo, Sprague–Dawley rats; settings: for CLR estimated from free (unbound to plasma proteins) fractions in plasma: based on 20.7% plasma protein binding; for MRT / clearance / CL renal / half-life / Vd / AUC: Sprague-Dawley, rat, plasma, iv, 10 mg/kg; for clearance: read-out: CL (time-averaged total body clearance); for CL renal: read-out: CLR (time-averaged renal clearance); for half-life: read-out: Terminal half-life; for Vd: read-out: Vss; for AUC: time zero to infinity
Description: Rats were randomly divided into three groups: control, G-ARF, and C-ARF rats. Acute renal failure was induced in rats by intraperitoneal injection of gentamicin (100 mg/kg, dissolved in 0.9% NaCl-injectable solution) daily for 8 days or by a single intraperitoneal injection of cisplatin (7.5 mg/kg, dissolved in 0.9% NaCl-injectable solution), while control rats were injected with 0.9% NaCl-injectable solution only. […] BUN (Blood urea nitrogen) levels were measured in rats on the last day of induction using a BUN detection kit (Asan Pharmaceutical, Seoul, Korea). Rats with a urea nitrogen level of 36 mg/dL or higher were considered to be acute renal failure-induced and were selected for the study.
For oral and intravenous administration, pretreatment and surgical procedures were performed as previously reported. For oral study, the rats were restricted from eating food overnight but water was freely accessible. The next day, after anesthesia with ketamine at a dose of 100 mg/kg, polyethylene 50 tubes (Clay Adams, Parsippany, NJ, USA) was cannulated into the carotid artery for blood collection. For intravenous study, polyethylene 50 tubes were cannulated into the carotid artery and jugular vein for blood collection and drug administration, respectively. After surgery, rats were allowed to rest for 2–3 h to recover from anesthesia and were free in the individual metabolic cage during the experiment.
Blood samples (110 μL) were collected through the carotid artery at 0 (prior to drug infusion), 1 (at the end of drug infusion), 5, 15, 30, 45, 60, 90, 120, 180, 240, 360, 480, 600, and 720 min and were centrifuged at 8000 × g for 1 min. […] After collecting each blood sample, 0.3 mL of heparinized 0.9% NaCl-injectable solution (10 IU/mL) was immediately administered to the carotid artery to prevent blood clotting. At 24 h, the rat’s abdomen was open and the entire gastrointestinal tract was removed, transferred to a beaker with 50 mL of methanol, and cut into small pieces.
At 24 h after drug administration, urine samples were also collected. The metabolic cage was rinsed with 20 mL of distilled water, which was combined with the 24-h urine sample.
A 50-μL aliquot of biological sample was mixed with 1 μL hydrocortisone (5 mg/mL); then, 20 μL of 20% ammonia solution was added, mixed with a vortex-mixer (Scientific Industries, Bohemia, NY, USA) for 30 s, and extracted with 750 µL ethyl acetate. The organic layer was collected, evaporated on a thermobath (Eyela, Tokyo, Japan) under a gentle stream of nitrogen gas at 40 °C and redissolved by adding 130 µL 20% acetonitrile, and 50 µL of each reconstituted sample was analyzed by HPLC [12, 22].
The reconstituted biological samples were filtered through a 0.45-µm filter (Millipore, Billerica, MA, USA) and analyzed with a reversed-phase column (C18; 25 cm × 4.6 mm, 5 µm; Young Jin Biochrom, Seongnam, Korea) using a UV detector at 287 nm. The mobile phase consisted of 10 mM ammonium acetate buffer (pH 5.0) and acetonitrile at a ratio of 69.5:30.5 (v/v) with a flow rate of 1.0 mL/min.
To estimate pharmacokinetic parameters such as terminal half-life, the apparent volume of distribution at steady state (Vss), area under plasma concentration-time curves from time zero to time infinity (AUC), mean residence time (MRT), and time-averaged total body (CL), and renal (CLR) and nonrenal (CLNR) clearances, standard methods were applied using noncompartmental analysis (WinNonlin, Pharsight Corporation, Mountain View, CA, USA). AUCs were calculated using the trapezoidal rule-extrapolation method. The peak plasma concentration (Cmax) and time that the plasma concentration was peak (Tmax) were directly confirmed from plasma concentration-time curves.

[2] = hepatic microsomes of G-ARF rats, not significantly different

SMILES: C[C@@H]1CCN(C(=O)CC#N)C[C@@H]1N(C)c1ncnc2[nH]ccc12 [tofacitinib, Tofacitinib]
- decrease of Vmax for the disappearance of tofacitinib versus control rats (hepatic microsomes; hepatic microsomes of C-ARF rats, not significantly different): 28.7%
- decrease of CLint for the disappearance of tofacitinib versus control rats (hepatic microsomes; hepatic microsomes of C-ARF rats, significantly lower): 54.4%
- decrease of CLint for the disappearance of tofacitinib versus control rats (hepatic microsomes; [2]): 31.1%
- decrease of Vmax for the disappearance of tofacitinib versus control rats (hepatic microsomes; [2]): 9.52%
- Km values, comparison of groups (hepatic microsomes; hepatic microsomes of control, G-ARF and C-ARF rats): comparable among the three groups
- Ae0–24 h (dose excreted in the 24-h urine) ([1]; C-ARF rats, iv 10 mg/kg): 0.458 ± 0.626 % of dose
- GI24 h (dose remaining in the gastrointestinal tract at 24 h) ([1]; C-ARF rats, iv 10 mg/kg): 0.195 ± 0.157 % of dose
- decrease of Ae0–24 h versus control rats ([1]; C-ARF rats, iv 10 mg/kg): 95.2%
- decrease of CL versus control rats ([1]; C-ARF rats, iv 10 mg/kg): 62.3%
- decrease of CLNR versus control rats ([1]; C-ARF rats, iv 10 mg/kg): 57.4%
- decrease of CLR versus control rats ([1]; C-ARF rats, iv 10 mg/kg): 98.6%
- increase of AUC versus control rats ([1]; C-ARF rats, iv 10 mg/kg): 163%
- increase of MRT versus control rats ([1]; C-ARF rats, iv 10 mg/kg): 154%
- increase of terminal half-life versus control rats ([1]; C-ARF rats, iv 10 mg/kg): 240%
- CLR estimated from free (unbound to plasma proteins) fractions in plasma ([1]; C-ARF rats, iv 10 mg/kg): 0.0856 mL/min/kg
- Ae0–24 h (dose excreted in the 24-h urine) ([1]; G-ARF rats, iv 10 mg/kg): 5.92 ± 2.76 % of dose
- GI24 h (dose remaining in the gastrointestinal tract at 24 h) ([1]; G-ARF rats, iv 10 mg/kg): 0.00919 ± 0.0225 % of dose
- decrease of Ae0–24 h versus control rats ([1]; G-ARF rats, iv 10 mg/kg): 37.7%
- decrease of CL versus control rats ([1]; G-ARF rats, iv 10 mg/kg): 37.7%
- decrease of CLNR versus control rats ([1]; G-ARF rats, iv 10 mg/kg): 33.2%
- decrease of CLR versus control rats ([1]; G-ARF rats, iv 10 mg/kg): 69.5%
- increase of AUC versus control rats ([1]; G-ARF rats, iv 10 mg/kg): 64.0%
- increase of MRT versus control rats ([1]; G-ARF rats, iv 10 mg/kg): 96.7%
- increase of terminal half-life versus control rats ([1]; G-ARF rats, iv 10 mg/kg): 78.7%
- CLR estimated from free (unbound to plasma proteins) fractions in plasma ([1]; G-ARF rats, iv 10 mg/kg): 1.83 mL/min/kg
- MRT ([1]; C-ARF rats): 1.15 h
- clearance ([1]; C-ARF rats): 14.7 ± 2.29 mL/min/kg
- CL renal ([1]; C-ARF rats): 0.0679 ± 0.0917 mL/min/kg
- half-life ([1]; C-ARF rats): 2.23 ± 0.682 h
- Vd ([1]; C-ARF rats): 1 ± 0.558 L/kg
- AUC ([1]; C-ARF rats): 11600 ng·h/mL
- MRT ([1]; G-ARF rats): 0.892 h
- clearance ([1]; G-ARF rats): 24.3 ± 6.95 mL/min/kg
- CL renal ([1]; G-ARF rats): 1.45 ± 1.54 mL/min/kg
- half-life ([1]; G-ARF rats): 1.17 ± 0.493 h
- Vd ([1]; G-ARF rats): 1.17 ± 0.519 L/kg
- AUC ([1]; G-ARF rats): 7220 ng·h/mL
- MRT ([1]; control rats): 0.453 h
- clearance ([1]; control rats): 39 ± 7.97 mL/min/kg
- half-life ([1]; control rats): 0.657 ± 0.188 h
- Vd ([1]; control rats): 1.04 ± 0.402 L/kg
- AUC ([1]; control rats): 4400 ng·h/mL
- Ae0–24 h (dose excreted in the 24-h urine) ([1]; control rats, iv 10 mg/kg): 9.51 ± 0.879 % of dose
- CLR (time-averaged renal clearance) ([1]; control rats, iv 10 mg/kg): 4.75 ± 1.28 mL/min/kg
- GI24 h (dose remaining in the gastrointestinal tract at 24 h) ([1]; control rats, iv 10 mg/kg): 0.153 ± 0.306 % of dose
- CLR estimated from free (unbound to plasma proteins) fractions in plasma ([1]; control rats, iv 10 mg/kg): 5.99 mL/min/kg
